# According to patent US20250074911A1, “MACROCYCLIC BTK INHIBITORS” (Crossfire Oncology Holding B.V., priority 2021, published 2025):
# Several values for one entry are separate records, joined by “and”; a condition that tells them apart may be missing. Equal entries are not always repeated.
# Experiments:
# BTK T316A = BTK T316A (Homo sapiens (Human), UniProt Q06187, T316A); experiment: Binding kinetics measurements (Surface Plasmon Resonance) on BTK T316A; conditions: for Kd: binding affinity by Surface Plasmon Resonance (SPR); for Tau (h) BTK T316A (Act): target residence time, SPR
# Chain of BTK T316A (Q06187 whole entry T316A): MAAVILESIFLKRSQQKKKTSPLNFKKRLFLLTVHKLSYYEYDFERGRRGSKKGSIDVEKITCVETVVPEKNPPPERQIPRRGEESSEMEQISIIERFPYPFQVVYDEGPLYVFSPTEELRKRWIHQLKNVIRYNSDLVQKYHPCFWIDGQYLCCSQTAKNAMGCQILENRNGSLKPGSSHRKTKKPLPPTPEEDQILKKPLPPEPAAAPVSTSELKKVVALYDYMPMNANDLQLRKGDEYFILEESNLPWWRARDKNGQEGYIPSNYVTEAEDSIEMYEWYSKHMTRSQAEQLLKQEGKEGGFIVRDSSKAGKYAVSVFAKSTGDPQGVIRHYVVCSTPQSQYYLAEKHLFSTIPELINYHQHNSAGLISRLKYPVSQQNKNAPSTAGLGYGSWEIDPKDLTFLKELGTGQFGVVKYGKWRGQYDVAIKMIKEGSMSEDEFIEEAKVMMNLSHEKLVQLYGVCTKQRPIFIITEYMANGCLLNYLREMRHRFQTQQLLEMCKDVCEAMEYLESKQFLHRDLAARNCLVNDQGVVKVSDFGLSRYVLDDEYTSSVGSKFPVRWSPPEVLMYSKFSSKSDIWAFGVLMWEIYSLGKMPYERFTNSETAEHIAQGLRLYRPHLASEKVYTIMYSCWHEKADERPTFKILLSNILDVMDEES
# Procedure, shortened: (§1)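 SPR, single cycle kinetics: 5 injections, 3.16-316 nM, 30 μl/min (avoids mass transport limitation), 22° C, 1% DMSO buffer. Protein immobilized at 4° C on streptavidin chip, biocytin block. Blank run first; reference channel and buffer curves subtracted.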
# [1] = target: full-length BTK C481S enzyme (Homo sapiens (Human), UniProt Q06187, C481S); experiment: Biochemical kinase assay BTK C481S (IMAP)
# Chain of full-length BTK C481S enzyme (Q06187 whole entry C481S): as the sequence (Q06187 whole entry T316A) above, with A316T, C481S counted along it
# Procedure, shortened: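 Full-length BTK C481S (1.2 nM) was pre-incubated with compound for 1 h at room temperature in the dark, then reacted with fluorescein-labelled MBP-derived peptide (50 nM) and ATP (7 μM) for 2 h. Reactions were quenched with IMAP binding solution, and IC50 values were derived from fluorescence polarization.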
# BTK T474I = BTK T474I (Homo sapiens (Human), UniProt Q06187, T474I); experiment: Binding kinetics measurements (Surface Plasmon Resonance) on BTK T474I; conditions: for Kd: binding affinity by Surface Plasmon Resonance (SPR); for Tau (h) BTK T474I (Act): target residence time, SPR
# Chain of BTK T474I (Q06187 whole entry T474I): as the sequence (Q06187 whole entry T316A) above, with A316T, T474I counted along it
# Procedure, shortened: as §1
# [2] = target: full-length wt-BTK enzyme (Homo sapiens (Human), UniProt Q06187); experiment: Biochemical kinase assay wt-BTK (IMAP)
# Chain of full-length wt-BTK enzyme (Q06187 whole entry): as the sequence (Q06187 whole entry T316A) above, with A316T counted along it
# Procedure, shortened: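 IMAP fluorescence polarization assay: 1.2 nM enzyme pre-incubated 1 h with compound at room temperature, then 50 nM fluorescein-labeled MBP-derived peptide and 4 μM ATP added. Reaction ran 2 h at room temperature in the dark before quenching with IMAP binding solution.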
# BTK C481S = BTK C481S (Homo sapiens (Human), UniProt Q06187, C481S); experiment: Binding kinetics measurements (Surface Plasmon Resonance) on BTK C481S; conditions: for Kd: binding affinity by Surface Plasmon Resonance (SPR); for Tau (h) BTK C418S (Act): target residence time for BTK C481S, SPR
# Chain of BTK C481S (Q06187 whole entry C481S): as the sequence (Q06187 whole entry T316A) above, with A316T, C481S counted along it
# Procedure, shortened: as §1
# BTK T474S = BTK T474S (Homo sapiens (Human), UniProt Q06187, T474S); experiment: Binding kinetics measurements (Surface Plasmon Resonance) on BTK T474S; conditions: for residence time: SPR binding kinetics, BTK T474S, read-out: Tau (h) BTK T474S (Act), target residence time (converted); for Kd: binding affinity by Surface Plasmon Resonance (SPR)
# Chain of BTK T474S (Q06187 whole entry T474S): as the sequence (Q06187 whole entry T316A) above, with A316T, T474S counted along it
# Procedure, shortened: as §1
# [3] = test system: wt-TMD8 diffuse large B-cell lymphoma cells; experiment: Cell proliferation assay wt-TMD8 (ATPlite, 120 hours); format: cell-based; conditions: B-cell; wt-TMD8 cells, 120 hours, ATPlite; read-out: IC50 wt-TMD8
# Procedure, shortened: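 wt-TMD8 DLBCL cells, 1600 per well in RPMI-1640 with 10% FBS, rested ≥5 h then exposed to compound for 120 h at 37° C, 5% CO2. Viability read by ATPlite luminescence; percentage growth calculated relative to start-of-incubation signal and untreated 0.3% DMSO maximum growth.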
# [4] = test system: wt-REC-1 mantle cell lymphoma cells; experiment: Cell proliferation assay wt-REC-1 (ATPlite, 72 hours); format: cell-based; conditions: 72 h; read-out: IC50 wt-REC-1
# Procedure, shortened: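 Luminescent viability read over 72 h, start-of-incubation signal recorded separately to separate growth from cell death. Percentage growth referenced to compound-free 0.3% DMSO wells; IC50 from 4-parameter logistic fit.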
# wt-BTK = wt-BTK (Homo sapiens (Human), UniProt Q06187); experiment: Binding kinetics measurements (Surface Plasmon Resonance) on wt-BTK; conditions: for Kd: binding affinity by Surface Plasmon Resonance (SPR); for Tau (h) wt-BTK (Act): target residence time, SPR
# Chain of wt-BTK (Q06187 whole entry): as the sequence (Q06187 whole entry T316A) above, with A316T counted along it
# Procedure, shortened: as §1
# REC-1 T474I cell lines = experiment: Cell proliferation assay REC-1 BTK T474I knock-in cells (ATPlite, 72 hours); format: cell-based; conditions: Homo sapiens, Rec1; 72 hours; read-out: IC50 REC-1 T474I
# Procedure, shortened: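 REC-1 cells carrying CRISPR knock-in mutant BTK, single-cell cloned and sequence-confirmed, were exposed to compound for 72 h and read by ATPlite luminescence. Percentage growth was calculated against the signal at the start of incubation and against untreated 0.3% DMSO wells as maximum growth.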
Structure (SMILES),Kd (BTK T316A) [nM],Tau (h) BTK T316A (Act) (BTK T316A) [h],IC50 [1] [nM],Kd (BTK T474I),Tau (h) BTK T474I (Act) (BTK T474I) [h],IC50 [2] [nM],Kd (BTK C481S) [nM],residence time (BTK T474S) [h],Kd (BTK T474S) [nM],IC50 [3] [nM],IC50 [4] [nM],Kd (wt-BTK) [nM],Tau (h) wt-BTK (Act) (wt-BTK) [h],IC50 (REC-1 T474I cell lines) [nM],Tau (h) BTK C418S (Act) (BTK C481S) [h]
C[C@@H]1CC(=O)N[C@@H]2CCC[C@H](C2)n2nc(-c3ccc(C(=O)Nc4cc(C(F)(F)F)ccn4)cc3)c3c(N)ncc(c32)/C=C/CN1C [Example 44],< 5,2.47,< 5,< 2 nM,0.87,< 5,< 5,3.27,< 3,< 100,< 100,< 5,2.32,< 100,
Nc1ncc2c3c1c(-c1ccc(C(=O)Nc4cc(C(F)(F)F)ccn4)cc1)nn3[C@@H]1CCC[C@H](C1)NC(=O)CCC/C=C/2 [Example 47],< 5,1.91,< 5,< 2 nM,0.86,< 5,< 5,2.76,< 3,< 100,100 to 1000,< 5,2.66,100 to 500,4.68
Nc1ncc2c3c1c(-c1ccc(C(=O)Nc4cc(C(F)(F)F)ccn4)cc1)nn3[C@@H]1CCC[C@H](C1)NC(=O)CCCC/C=C/2 [Example 48],< 5,3.89,< 5,< 2 nM,2.01,< 5,< 5,4.18,< 3,< 100,< 100,< 5,7.37,< 100,4.27
Nc1ncc2c3c1c(-c1ccc(C(=O)Nc4cc(C(F)(F)F)ccn4)cc1)nn3[C@@H]1CCC[C@H](C1)NC(=O)COC/C=C/2 [Example 49],< 5,2.20,< 5,< 2 nM,,< 5,< 5,4.63,< 3,< 100,< 100,< 5,3.20,100 to 500,4.75
COc1ccc(F)cc1C(=O)NCc1ccc(-c2nn3c4c(cnc(N)c24)/C=C/CCCC(=O)N[C@@H]2CCC[C@@H]3C2)cc1 [Example 50],< 5,,< 5,10 to 50 nM and < 5 nM,,< 5,< 5,,< 3,< 100,100 to 1000,< 5,,500 to 10000,
COc1ccc(F)cc1C(=O)NCc1ccc(-c2nn3c4c(cnc(N)c24)/C=C/CCCCC(=O)N[C@@H]2CCC[C@@H]3C2)cc1 [Example 51],< 5,,< 5,10 to 50 nM and < 5 nM,,< 5,< 5,2.09,< 3,< 100,100 to 1000,< 5,1.82,100 to 500,1.92
COc1ccc(F)cc1C(=O)NCc1ccc(-c2nn3c4c(cnc(N)c24)/C=C/CO[C@H](C)C(=O)N[C@@H]2CCC[C@@H]3C2)cc1 [Example 53],< 5,,< 5,10 to 50 nM and < 5 nM,,< 5,< 5,1.26,< 3,< 100,< 100,< 5,0.89,100 to 500,1.57
